Marks after values point to notes of the source that are not given here.
How the values were obtained:
[1] = test system: carrageenan-induced rat paw edema; assay: Carrageenan-induced rat paw swelling; type: in vivo, male SD rats
Experimental: Rat paw edema was induced by injecting carrageenan, and we observed the swelling to evaluate the anti-inflammatory effect. Wherein:
• Animals: male SD rats, 150-180 g; • Inflammatory Agent: carrageenan; • Test Medicine: ethyl 11-deoxy-18α-glycyrrhetinate was dissolved in 1% CMC-Na to get the desired concentration; • Positive Control Medicine: indomethacin was dissolved in 1% CMC-Na to get the desired concentration;
50 rats were randomly divided into 5 groups of 10 rats in each group: the model group, positive control group (administering indomethacin 10 mg/kg), various doses of the test medicine groups (30, 60, 120 mg/kg). The animals in each group were administered continuously for 3 days. Before the last administration, the volumes of the left hind feet of the rats were measured by micropipette method. Then the animals were administered the test medicines or CMC-Na by gastric infusion. 1 hour later, freshly prepared carrageenan was injected subcutaneously into left hind feet of the rats according to the dosage of 0.05 ml/paw by using a 0.25 ml syringe and NO. 4 needle. The volume of left hind feet of the rats was measured by the method mentioned above at time points of 1, 3, 4, 5 and 7 hours after administration, each point 2 times, and the average values were calculated. The difference of these values between before and after inflammation was called swelling degree.
Data was presented as x±s. T test of the average of two samples was used to compare the experimental data of each group. P<0.05 or P<0.01 was regarded to be statistically significant.

[2] = test system: acetaminophen induced liver injury; assay: Acetaminophen induced liver injury in mice; type: in vivo; conditions: for ALT / AST: 10 days
Experimental: Ethyl 11-deoxy-18α-glycyrrhetinate: provided by traditional Chinese medicine laboratory, R&D center of Jiangsu Chia Tai Tianqing Pharmaceutical Co., Ltd. Bifendate pills: produced by Beijing Union Pharmaceutical factory. Daily dosage of human is 45 mg, used as the positive control medicine. Acetaminophen: produced by Jinzhou biochemical pharmaceutical factory. All medicines were prepared to desired concentrations with physiological saline according to the requirement of experiment. AST, ALT Kit: product of Nanjing Jiancheng bioengineering research institute.
60 mice were randomly divided into 6 groups: the normal control group, Bifendate group (positive medicine group), model control group, various doses of ethyl 11-deoxy-18α-glycyrrhetinate groups (240, 120, 60 mg/kg). After the animals were adaptively fed for 3 days, animals in each group were administered the medicines by gastric infusion for 10 days (one time/day). Animals in the normal control group and model group were administered 0.2 ml/mouse of physiological saline. 6 hours after the last administration, animals in each group, except the animals in normal control group, were intraperitoneally injected 400 mg kg-1 acetaminophen. After 12 hours, blood was taken by orbital bleeding. Activities of alanine aminotransferase (ALT), aspartate aminotransferase (AST) were measured. And T test of groups was performed, see table 7;

[3] = test system: D-Galn induced acute liver injury; assay: D-Galn induced acute liver injury mouse model; type: in vivo, ICR male mice
Experimental: 1. Comparison of therapeutic effects of ethyl 11-deoxy-18α-glycyrrhetinate and compound glycyrrhizin injection on ICR male mouse models of the D-Galn induced acute liver injury
Methods: 60 ICR male mice were randomly divided into 6 groups of 10 mice in each group: the model group, compound glycyrrhizin injection group (60 mg/kg), compound glycyrrhizin gastric infusion group (240 mg /kg), high dose of ethyl 11-deoxy-18α-glycyrrhetinate group (240 mg/kg), middle dose of ethyl 11-deoxy-18α-glycyrrhetinate group (120 mg/kg), low dose of ethyl 11-deoxy-18α-glycyrrhetinate group (60 mg/kg). […] The mice in model group were administered equal amount of 0.5% CMC-Na by gastric infusion.

[4] = test system: TAA induced acute liver injury; assay: TAA induced acute liver injury mouse model; type: in vivo, ICR male mice; parameters: Average grade of hepatocyte necrosis: scale not given here; conditions: for Grade of hepatocyte necrosis 0 (number of mice) / Grade of hepatocyte necrosis 1 (number of mice) / Grade of hepatocyte necrosis 2 (number of mice) / Grade of hepatocyte necrosis 3 (number of mice) / Grade of hepatocyte necrosis 4 (number of mice): N=10
Experimental: 50 ICR male mice were randomly divided into 5 groups of 10 mice in each group: the model group, diammonium glycyrrhizinate group (240 mg/kg), high dose of ethyl 11-deoxy-18α-glycyrrhetinate group (240 mg/kg), middle dose of ethyl 11-deoxy-18α-glycyrrhetinate group (120 mg/kg), and low dose of ethyl 11-deoxy-18α-glycyrrhetinate group (60 mg/kg). The mice in model group were administered equal amount of 0.5% CMC-Na by IG.

[5] = test system: BCG + LPS induced liver injury; assay: BCG+LPS induced liver injury in mice; type: in vivo, Kunming mice; conditions: for ALT / AST: 7 days
[6] = Table 1 experiment, 60 mg/kg IG, daily for 6 days
[7] = Table 1 experiment, 120 mg/kg IG, daily for 6 days
[8] = Table 1 experiment, 240 mg/kg IG, daily for 6 days
[9] = Table 2 experiment, 60 mg/kg IG, 7 days
[10] = Table 2 experiment, 120 mg/kg IG, 7 days
[11] = Table 2 experiment, 240 mg/kg IG, 7 days
[12] = Table 2 experiment, 60 mg/kg IP, 7 days

## CCOC(=O)C1(C)CCC2(C)CCC3(C)C(=CCC4C5(C)CCC(O)C(C)(C)C5CCC43C)C2C1 (stereo not drawn) [Ethyl 11-deoxy-18α-glycyrrhetinate, ethyl 11-deoxy-18α-glycyrrhetinate]
[1]; 30 mg/kg gastric infusion, 1 h
  Swelling degree of the feet after inflammation: 0.20 ± 0.10 mL
[1]; 30 mg/kg gastric infusion, 3 h
  Swelling degree of the feet after inflammation: 0.27 ± 0.10 mL
[1]; 30 mg/kg gastric infusion, 4 h
  Swelling degree of the feet after inflammation: 0.33 ± 0.11 mL
[1]; 30 mg/kg gastric infusion, 5 h
  Swelling degree of the feet after inflammation: 0.39 ± 0.11 mL
[1]; 30 mg/kg gastric infusion, 7 h
  Swelling degree of the feet after inflammation: 0.27 ± 0.12 mL
[1]; 60 mg/kg gastric infusion, 1 h
  Swelling degree of the feet after inflammation: 0.17 ± 0.08 mL
[1]; 60 mg/kg gastric infusion, 3 h
  Swelling degree of the feet after inflammation: 0.29 ± 0.15 mL
[1]; 60 mg/kg gastric infusion, 4 h
  Swelling degree of the feet after inflammation: 0.37 ± 0.11 mL
[1]; 60 mg/kg gastric infusion, 5 h
  Swelling degree of the feet after inflammation: 0.37 ± 0.07 mL
[1]; 60 mg/kg gastric infusion, 7 h
  Swelling degree of the feet after inflammation: 0.29 ± 0.09 mL
[1]; 120 mg/kg gastric infusion, 1 h
  Swelling degree of the feet after inflammation: 0.20 ± 0.05 mL
[1]; 120 mg/kg gastric infusion, 3 h
  Swelling degree of the feet after inflammation: 0.32 ± 0.11 mL
[1]; 120 mg/kg gastric infusion, 4 h
  Swelling degree of the feet after inflammation: 0.34 ± 0.09 mL
[1]; 120 mg/kg gastric infusion, 5 h
  Swelling degree of the feet after inflammation: 0.42 ± 0.12 mL
[1]; 120 mg/kg gastric infusion, 7 h
  Swelling degree of the feet after inflammation: 0.28 ± 0.09 mL
[1]; 30, 60, 120 mg/kg
  Inhibition of carrageenan-induced swelling of the rat feet (in words): began to inhibit the swelling of the rat feet induced by carrageenan after 4 hours
[2]; 60 mg/kg gastric infusion
  ALT: 172.0 ± 39.8 U/L
  AST: 203.5 ± 55.4 U/L
[2]; 120 mg/kg gastric infusion
  ALT: 133.3 ± 28.7 U/L
  AST: 158.1 ± 46.9 U/L
[2]; 240 mg/kg gastric infusion
  ALT: 119.4 ± 15.2 U/L
  AST: 122.3 ± 28.0 U/L
[2]; mouse, in vivo
  Reduction of AST, ALT and protection against hepatocyte injury (in words): can reduce AST, ALT, and effectively protect against the acetaminophen induced hepatocyte injury
[3]; [6]
  ALT: 833 ± 564 U/ml
  ALT Inhibition %: 60%
  AST: 777 ± 533 U/ml
  AST Inhibition %: 60%
[3]; [7]
  ALT: 474 ± 345 U/ml
  ALT Inhibition %: 77%
  AST: 414 ± 340 U/ml
  AST Inhibition %: 79%
[3]; [8]
  ALT: 311 ± 256 U/ml
  ALT Inhibition %: 85%
  AST: 317 ± 214 U/ml
  AST Inhibition %: 84%
[3]; [9]
  ALT: 767 ± 739 U/ml
  ALT Inhibition %: 61%
  AST: 353 ± 256 U/ml
  AST Inhibition %: 69%
[3]; [10]
  ALT: 452 ± 432 U/ml
  ALT Inhibition %: 77%
  AST: 292 ± 215 U/ml
  AST Inhibition %: 74%
[3]; [11]
  ALT: 372 ± 440 U/ml
  ALT Inhibition %: 81%
  AST: 266 ± 192 U/ml
  AST Inhibition %: 77%
[4]; 60 mg/kg IG
  ALT: 1177 ± 701 U/ml
  ALT Inhibition %: 48%
  AST: 940 ± 582 U/ml
  AST Inhibition %: 45%
  Average grade of hepatocyte necrosis: 1.4*
  Grade of hepatocyte necrosis 0 (number of mice): 1
  Grade of hepatocyte necrosis 1 (number of mice): 4
  Grade of hepatocyte necrosis 2 (number of mice): 5
  Grade of hepatocyte necrosis 3 (number of mice): 0
  Grade of hepatocyte necrosis 4 (number of mice): 0
[4]; 120 mg/kg IG
  ALT: 1117 ± 707 U/ml
  ALT Inhibition %: 51%
  AST: 823 ± 530 U/ml
  AST Inhibition %: 52%
  Average grade of hepatocyte necrosis: 1.3**
  Grade of hepatocyte necrosis 0 (number of mice): 1
  Grade of hepatocyte necrosis 1 (number of mice): 5
  Grade of hepatocyte necrosis 2 (number of mice): 4
  Grade of hepatocyte necrosis 3 (number of mice): 0
  Grade of hepatocyte necrosis 4 (number of mice): 0
[4]; 240 mg/kg IG
  ALT: 992 ± 558 U/ml
  ALT Inhibition %: 56%
  AST: 738 ± 258 U/ml
  AST Inhibition %: 57%
  Average grade of hepatocyte necrosis: 1.2**
  Grade of hepatocyte necrosis 0 (number of mice): 1
  Grade of hepatocyte necrosis 1 (number of mice): 6
  Grade of hepatocyte necrosis 2 (number of mice): 3
  Grade of hepatocyte necrosis 3 (number of mice): 0
  Grade of hepatocyte necrosis 4 (number of mice): 0
[5]; 60 mg/kg gastric infusion
  ALT: 105.3 ± 18.61 U/L
  AST: 227.2 ± 59.7 U/L
[5]; 120 mg/kg gastric infusion
  ALT: 108.7 ± 20.0 U/L
  AST: 190.1 ± 43.3 U/L
[5]; 240 mg/kg gastric infusion
  ALT: 89.4 ± 13.2 U/L
  AST: 169.3 ± 38.4 U/L
[5]; mouse, in vivo
  Protection of liver and reduction of enzyme activity (in words): has good activity of protecting liver and reducing enzyme activity

## CC1(C)[C@@H](O[C@H]2O[C@H](C(=O)O)[C@@H](O)[C@H](O)[C@H]2O[C@@H]2O[C@H](C(=O)O)[C@@H](O)[C@H](O)[C@H]2O)CC[C@]2(C)[C@H]3C(=O)C=C4[C@@H]5C[C@@](C)(C(=O)O)CC[C@]5(C)CC[C@@]4(C)[C@]3(C)CC[C@@H]12.N.N [Diammonium glycyrrhizinate, diammonium glycyrrhizinate, reference compound]
[3]; [12]
  ALT: 383 ± 393 U/ml
  ALT Inhibition %: 80%
  AST: 308 ± 389 U/ml
  AST Inhibition %: 73%
[3]; [11]
  ALT: 993 ± 479 U/ml
  ALT Inhibition %: 49%
  AST: 566 ± 291 U/ml
  AST Inhibition %: 50%
[4]; 240 mg/kg IG
  ALT: 1568 ± 721 U/ml
  ALT Inhibition %: 31%
  AST: 1039 ± 623 U/ml
  AST Inhibition %: 40%
  Average grade of hepatocyte necrosis: 1.3**
  Grade of hepatocyte necrosis 0 (number of mice): 0
  Grade of hepatocyte necrosis 1 (number of mice): 7
  Grade of hepatocyte necrosis 2 (number of mice): 3
  Grade of hepatocyte necrosis 3 (number of mice): 0
  Grade of hepatocyte necrosis 4 (number of mice): 0
